Assay results from PubChem BioAssay (NCI).
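The compound was tested at five concentrations on cells cultured in 96-well plates, with a 48-hour exposure period. Abbreviation: GI50, concentration required for 50% inhibition of growth. TGI denotes the concentration required for complete inhibition of growth.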

Legend:
Experiment in all cases: DTP human tumour cell line panel, 48 h
[1] = system: HL-60(TB) leukemia
[2] = system: HOP-62 NSCLC
[3] = system: COLO 205 colon
[4] = system: RPMI-8226 leukemia
[5] = system: SR leukemia
[6] = system: MDA-MB-231 breast
[7] = system: KM12 colon
[8] = system: OVCAR-8 ovarian
[9] = system: SF-539 CNS
[10] = system: NCI/ADR-RES ovarian
[11] = system: MALME-3M melanoma
[12] = system: SW-620 colon
[13] = system: SNB-75 CNS
[14] = system: DU-145 prostate
[15] = system: SK-MEL-28 melanoma
[16] = system: UACC-257 melanoma
[17] = system: NCI-H522 lung
[18] = system: TK-10 renal
[19] = system: T-47D breast
[20] = system: K-562 leukemia
[21] = system: UO-31 renal
[22] = system: HS 578T breast
[23] = system: OVCAR-3 ovarian
[24] = system: HCT-15 colon
[25] = system: NCI-H226 lung
[26] = system: LOX IMVI melanoma
[27] = system: MOLT-4 leukemia
[28] = system: OVCAR-5 ovarian
[29] = system: HCC-2998 colon
[30] = system: PC-3 prostate
[31] = system: SK-OV-3 ovarian
[32] = system: A498 renal
[33] = system: BT-549 breast
[34] = system: MCF7 breast
[35] = system: SK-MEL-5 melanoma
[36] = system: IGROV1 ovarian
[37] = system: CCRF-CEM leukemia
[38] = system: MDA-MB-435
[39] = system: RXF 393 renal
[40] = system: OVCAR-4 ovarian
[41] = system: SK-MEL-2 melanoma
[42] = system: ACHN renal
[43] = system: EKVX NSCLC
[44] = system: NCI-H23 lung
[45] = system: A549 NSCLC
[46] = system: UACC-62 melanoma
[47] = system: U251 CNS
[48] = system: SN12C renal
[49] = system: HOP-92 NSCLC
[50] = system: NCI-H460 lung
[51] = system: SF-268 CNS
[52] = system: SF-295 CNS
[53] = system: CAKI-1 renal
[54] = system: HCT-116 colon
[55] = system: SNB-19 CNS
[56] = system: HT29 colon
[57] = system: 786-0 renal
[58] = system: M14 melanoma

Compound `COc1ccc(-c2cnc(-c3ccc(F)cc3)[nH]2)cc1` has a GI50 [1] of 2.03 µM, a TGI [1] of 23.4 µM and a GI50 [2] of 8.25 µM. It also gave a TGI [2] of 21.4 µM, a GI50 [3] of 2.2 µM and a TGI [3] of 7.59 µM. It also gave a GI50 [4] of 2.39 µM, a TGI [4] greater than 27.2 µM and a GI50 [5] of 2.41 µM. For the same compound, the TGI [5] was 6.27 µM, the GI50 [6] was 24 µM and the TGI [6] was greater than 77.7 µM. For the same compound, the GI50 [7] was 1.7 µM, the TGI [7] was 3.27 µM and the GI50 [8] was 7.85 µM. It also gave a TGI [8] of 21.1 µM, a GI50 [9] of 9.46 µM and a TGI [9] of 29.6 µM. The GI50 [10] was 28.6 µM, the TGI [10] was greater than 100 µM and the GI50 [11] was 6.12 µM. For the same compound, the TGI [11] was 22.4 µM, the GI50 [12] was 1.91 µM and the TGI [12] was 3.99 µM. It also gave a GI50 [13] of 4.26 µM, a TGI [13] of 10.7 µM and a GI50 [14] of 2.59 µM. The TGI [14] was 7.59 µM, the GI50 [15] was 3.69 µM and the TGI [15] was 8.5 µM. The GI50 [16] was 5.17 µM, the TGI [16] was 17.2 µM and the GI50 [17] was 20.5 µM. For the same compound, the TGI [17] was greater than 56.1 µM, the GI50 [18] was 2.58 µM and the TGI [18] was 8.81 µM. The GI50 [19] was 8.39 µM, the TGI [19] was 36.4 µM and the GI50 [20] was 10.3 µM. The TGI [20] was greater than 55.1 µM, the GI50 [21] was 6.59 µM and the TGI [21] was 20.4 µM. For the same compound, the GI50 [22] was 2.14 µM, the TGI [22] was 11.2 µM and the GI50 [23] was 1.64 µM. For the same compound, the TGI [23] was 3.65 µM, the GI50 [24] was 5.98 µM and the TGI [24] was 13.9 µM. For the same compound, the GI50 [25] was 11 µM, the TGI [25] was greater than 62.3 µM and the GI50 [26] was 5.49 µM. The TGI [26] was 10.8 µM, the GI50 [27] was 10.5 µM and the TGI [27] was 49.6 µM. The GI50 [28] was 12.6 µM, the TGI [28] was 43.9 µM and the GI50 [29] was 7.4 µM. For the same compound, the TGI [29] was 25.1 µM, the GI50 [30] was 10.8 µM and the TGI [30] was 68.4 µM. For the same compound, the GI50 [31] was 16.5 µM, the TGI [31] was greater than 66.4 µM and the GI50 [32] was 2.2 µM. The TGI [32] was 6.17 µM, the GI50 [33] was 1.79 µM and the TGI [33] was 4.12 µM. For the same compound, the GI50 [34] was 1.95 µM, the TGI [34] was 6.93 µM and the GI50 [35] was 7.81 µM. It also gave a TGI [35] of 20.7 µM, a GI50 [36] of 6.58 µM and a TGI [36] of 12.7 µM. The GI50 [37] was 18.1 µM, the TGI [37] was greater than 89.4 µM and the GI50 [38] was 1.96 µM. For the same compound, the TGI [38] was 5.27 µM, the GI50 [39] was 2.2 µM and the TGI [39] was 5.59 µM. It also gave a GI50 [40] of 10.1 µM, a TGI [40] greater than 35.3 µM and a GI50 [41] of 18.8 µM. It also gave a TGI [41] of 45 µM, a GI50 [42] of 15.2 µM and a TGI [42] of 30.5 µM. It also gave a GI50 [43] of 5.9 µM, a TGI [43] of 18.5 µM and a GI50 [44] of 10.6 µM. It also gave a TGI [44] of 46.6 µM, a GI50 [45] of 5.8 µM and a TGI [45] of 16.1 µM. It also gave a GI50 [46] of 19.4 µM, a TGI [46] greater than 50 µM and a GI50 [47] of 6.3 µM. The TGI [47] was 17.2 µM, the GI50 [48] was 8.34 µM and the TGI [48] was 23.7 µM. The TGI [49] was 13.1 µM, the GI50 [50] was 8.37 µM and the TGI [50] was 29.6 µM. For the same compound, the GI50 [51] was 2.62 µM, the TGI [51] was 8 µM and the GI50 [52] was 1.54 µM. The TGI [52] was 3.43 µM, the GI50 [53] was 1.82 µM and the TGI [53] was 5.57 µM. The GI50 [54] was 1.36 µM, the TGI [54] was 3.39 µM and the GI50 [55] was 10.8 µM. For the same compound, the TGI [55] was 26.1 µM, the GI50 [56] was 3.19 µM and the TGI [56] was greater than 32.8 µM. It also gave a GI50 [57] of 6.14 µM, a TGI [57] of 12.3 µM and a GI50 [58] of 5.99 µM. The TGI [58] was 14.5 µM.

`Nc1c(C(=O)c2cccc(OCCN3CCOCC3)c2)cnn1-c1ccc(F)cc1` showed a GI50 [1] greater than 25 µM, a TGI [1] greater than 25 µM and a GI50 [2] greater than 25 µM. The TGI [2] was greater than 25 µM, the GI50 [3] was greater than 25 µM and the TGI [3] was greater than 25 µM. For the same compound, the GI50 [4] was greater than 25 µM, the TGI [4] was greater than 25 µM and the GI50 [5] was greater than 25 µM. The TGI [5] was greater than 25 µM, the GI50 [6] was greater than 25 µM and the TGI [6] was greater than 25 µM. For the same compound, the GI50 [7] was greater than 25 µM, the TGI [7] was greater than 25 µM and the GI50 [8] was greater than 25 µM. It also gave a TGI [8] greater than 25 µM, a GI50 [9] greater than 25 µM and a TGI [9] greater than 25 µM. For the same compound, the GI50 [10] was greater than 25 µM, the TGI [10] was greater than 25 µM and the GI50 [11] was greater than 25 µM. It also gave a TGI [11] greater than 25 µM, a GI50 [12] greater than 25 µM and a TGI [12] greater than 25 µM. For the same compound, the GI50 [13] was greater than 25 µM, the TGI [13] was greater than 25 µM and the GI50 [14] was greater than 25 µM. The TGI [14] was greater than 25 µM, the GI50 [15] was greater than 25 µM and the TGI [15] was greater than 25 µM. For the same compound, the GI50 [16] was greater than 25 µM, the TGI [16] was greater than 25 µM and the GI50 [17] was greater than 25 µM. For the same compound, the TGI [17] was greater than 25 µM, the GI50 [18] was greater than 25 µM and the TGI [18] was greater than 25 µM. The GI50 [19] was greater than 23.7 µM, the TGI [19] was greater than 25 µM and the GI50 [20] was greater than 25 µM. It also gave a TGI [20] greater than 25 µM, a GI50 [21] greater than 25 µM and a TGI [21] greater than 25 µM. It also gave a GI50 [22] greater than 25 µM, a TGI [22] greater than 25 µM and a GI50 [23] greater than 25 µM. The TGI [23] was greater than 25 µM, the GI50 [24] was greater than 25 µM and the TGI [24] was greater than 25 µM. The GI50 [25] was greater than 25 µM, the TGI [25] was greater than 25 µM and the GI50 [26] was greater than 25 µM. It also gave a TGI [26] greater than 25 µM, a GI50 [27] greater than 25 µM and a TGI [27] greater than 25 µM. For the same compound, the GI50 [28] was greater than 25 µM, the TGI [28] was greater than 25 µM and the GI50 [29] was greater than 25 µM. It also gave a TGI [29] greater than 25 µM, a GI50 [30] greater than 25 µM and a TGI [30] greater than 25 µM. For the same compound, the GI50 [31] was greater than 25 µM, the TGI [31] was greater than 25 µM and the GI50 [32] was greater than 25 µM. For the same compound, the TGI [32] was greater than 25 µM, the GI50 [33] was greater than 25 µM and the TGI [33] was greater than 25 µM. For the same compound, the GI50 [34] was greater than 25 µM, the TGI [34] was greater than 25 µM and the GI50 [35] was greater than 25 µM. It also gave a TGI [35] greater than 25 µM, a GI50 [36] greater than 25 µM and a TGI [36] greater than 25 µM. The GI50 [37] was greater than 25 µM, the TGI [37] was greater than 25 µM and the GI50 [38] was greater than 25 µM. It also gave a TGI [38] greater than 25 µM, a GI50 [39] greater than 25 µM and a TGI [39] greater than 25 µM. It also gave a GI50 [40] greater than 25 µM, a TGI [40] greater than 25 µM and a GI50 [41] greater than 25 µM. It also gave a TGI [41] greater than 25 µM, a GI50 [42] greater than 25 µM and a TGI [42] greater than 25 µM. It also gave a GI50 [44] greater than 25 µM, a TGI [44] greater than 25 µM and a GI50 [45] greater than 25 µM. The TGI [45] was greater than 25 µM, the GI50 [46] was greater than 25 µM and the TGI [46] was greater than 25 µM. For the same compound, the GI50 [47] was greater than 25 µM, the TGI [47] was greater than 25 µM and the GI50 [48] was greater than 25 µM. For the same compound, the TGI [48] was greater than 25 µM, the GI50 [49] was greater than 25 µM and the TGI [49] was greater than 25 µM. For the same compound, the GI50 [50] was greater than 25 µM, the TGI [50] was greater than 25 µM and the GI50 [51] was greater than 25 µM. It also gave a TGI [51] greater than 25 µM, a GI50 [52] greater than 25 µM and a TGI [52] greater than 25 µM. It also gave a GI50 [53] greater than 25 µM, a TGI [53] greater than 25 µM and a GI50 [54] greater than 25 µM. It also gave a TGI [54] greater than 25 µM, a GI50 [55] greater than 25 µM and a TGI [55] greater than 25 µM. The GI50 [56] was greater than 25 µM, the TGI [56] was greater than 25 µM and the GI50 [57] was greater than 25 µM. The TGI [57] was greater than 25 µM, the GI50 [58] was greater than 25 µM and the TGI [58] was greater than 25 µM.
